Assay results as given in patent publication US7053175B1, “Synthetic peptides useful in biological assays for detecting infections caused by group O HIV-1 viruses” (Bio-Rad Pasteur, priority 1997, dated 2006).

How the values were obtained:
[1] = system: sera from patients infected with group O HIV-1 retroviruses; experiment: Immunoenzymatic test: Test No. 1 (immunoreactivity of peptides coated on microplates); type: binding, human; set-up: key to ABSORBANCE: >: signal greater than the reading capacity of the spectrophotometer; conditions: for ABSORBANCE: cyclized peptide 2 μg/ml
Protocol: The sera used ESS, DUR, VAU and HAD are sera from French patients infected with group O HIV-1 retroviruses. The other serum samples from patients infected with group O HIV-1 retroviruses were obtained by the Yaoundé Pasteur Centre in Cameroon and were serotyped group O according to the serological algorithm described in AIDS (1977), 11, pp 445-453.
The HIV-negative sera (n=48) were obtained from healthy volunteers.
The synthetic peptides used were dissolved in water at a concentration of 1 mg/ml (stock solution). For the solid phase sensitization step (coating), 110 μl of a solution at 2 μg/ml of each peptide (obtained by diluting the stock solution with 0.1 M carbonate buffer solution) were added to each well of the microtitre plates Microtiter™ (NUNC). After incubating overnight at room temperature, the microplates were first washed with a Tris-NaCl buffer solution pH 7.4 containing 0.1% of Tween® 20 and 0.001% sodium merthiolate, and then saturated with a PBS solution containing 0.5% of Régilait™ (dried skimmed milk). After aspirating the saturating solution, the plates were heated for 10 min at 50° C.
The serum samples were diluted 1/5 with a skimmed milk solution (citrate buffer supplemented with 0.01% of phenol red, 0.25% of chloroform and 0.25% of Kathon®), deposited in the wells of the plates and incubated for 30 min at 40° C.
(§1) After washing with a Tris-NaCl buffer solution pH 7.4 containing 0.1% of Tween® 20 and 0.001% of sodium merthiolate, 100 μl of a solution of conjugate consisting of horseradish peroxidase-labelled anti-human IgG and IgM goat antibodies, containing as preservative 0.01% of sodium merthiolate, in solution in a citrate buffer solution supplemented with 30% glycerol and 25% normal foetal calf serum, were added to each plate well and then the plates were incubated for 30 min at 40° C.
After washing with a Tris-NaCl buffer solution pH 7.4 containing 0.1% of Tween® 20 and 0.001% of sodium merthiolate, the colour was developed by adding, to each well, 100 μl of O-phenylenediamine in solution in hydrogen peroxide. The microplates were then incubated for 30 min at room temperature and in the dark. The coloured reaction was then stopped by addition of 100 μl of 4N sulphuric acid. The absorbance (A) was determined at 490 and 620 nm.
The relative absorbance (A490-A620) read in each well is proportional to the immunoreactivity of each peptide. It indicates the ability of each peptide to react with the biological sample with which the test is carried out. The cut-off value was determined as being an absorbance equal to 0.15. It corresponds to the mean of the negative values (n=48) plus 12 standard deviations.
The reactivity of the peptides of the invention (peptide No. 3 (4B), peptide No. 2 (3B) and peptide No. 1 (2B), all in cyclized form), was compared with that of two synthetic peptides having, as sequence, a portion of the natural sequence of the envelope (env) of the VAU isolate (group O HIV-1 retrovirus) and comprising an immunodominant epitope of gp41.
For the study, these peptides were used in cyclized form.

[2] = system: serum samples from patients infected with group O HIV-1 retroviruses; experiment: Immunoenzymatic test: Test No. 2 (immunoreactivity with diluted sera); type: binding, human; conditions: solid phase peptide 2 μg/ml; for Number of samples: sera of Table V; for ABSORBANCE (OD): cyclized
Excerpt: The serum samples from patients infected with group O HIV-1 retroviruses were obtained by the Yaounde Pasteur Centre in Cameroon and were serotyped group O according to the serological algorithm described in AIDS (1977), 11, pp. 445-453. A genotyped sample (Maryland) is obtained from the United States. These samples were previously diluted in negative human serum at the dilutions given in Table V, in order to have a sufficient volume for the different immunoreactivity tests.
The synthetic peptides used were dissolved in water at a concentration of 1 mg/ml (stock solution). For the solid phase sensitization step (“coating”), the procedure was carried out as described for Example 2.
The serum samples were diluted 1/5 with a skimmed milk solution (citrate buffer supplemented with 0.01% of phenol red, 0.25% of chloroform and 0.25% of Kathon®), deposited in the wells of plates and incubated for 30 min at 40° C.
as §1, with “each” for “each plate”, “well of the plates” for “well”, “they” for “the plates”
After washing with a Tris-NaCl buffer solution pH 7.4 containing 0.1% of Tween® 20 and 0.001% of sodium merthiolate, the colour was developed as described in Example 2.
The relative absorbance (OD) (A490-A620) read in each well is proportional to the immunoreactivity of each peptide. It indicates the ability of each peptide to react with the biological sample with which the test is carried out.
The reactivity of the peptides of the invention, peptides No. 10 (14B), No. 11 (18B), No. 12 (19B), No. 14 (21B), No. 15 (22B), No. 16 (23B) all in cyclized form, was compared with that of three homologous synthetic peptides having, as sequence, a portion of the natural sequence of the envelope (env) of a group O HIV-1 retrovirus. These peptides are two peptides derived from the VAU isolate—the peptide VAU 22 AA and the peptide VAU 35 AA—and the peptide MVP 5180 (designated “MVP 5180” in Table V). The peptides VAU 22 AA and VAU 35 AA (whose structure is indicated in Example 2) and the peptide MVP 5180 comprise an immunodominant epitope of gp41.
All these peptides were used in cyclized form. The sequence of the MVP 5180 peptide is the following:
For each peptide tested, the samples were arranged into four classes (a, b, c and d) corresponding to various levels of relative absorbance read at the wavelengths A492-A620: • for a: OD<0.100, • for b: 0.100<OD<0.500, • for c: 0.500<OD<1.000, • for d: OD>1.000, thus making it possible to evaluate the degree of immunoreactivity of the peptides.

LLSLWGCRGRLVCYTSVQWNET [PEPTIDE No. 2 (3B)]
ABSORBANCE ([1]; serum 134): > | ABSORBANCE ([1]; serum 402): > | ABSORBANCE ([1]; serum 625): > | ABSORBANCE ([1]; serum 1062): > | ABSORBANCE ([1]; serum 1105*): 1.031 | ABSORBANCE ([1]; serum 1581): > | ABSORBANCE ([1]; serum 1702): > | ABSORBANCE ([1]; serum 1754): > | ABSORBANCE ([1]; serum 2294): > | ABSORBANCE ([1]; serum 2312): > | ABSORBANCE ([1]; serum 2313): > | ABSORBANCE ([1]; serum 2352): > | ABSORBANCE ([1]; serum 2551): > | ABSORBANCE ([1]; serum 2700): 0.274 | ABSORBANCE ([1]; serum 3016): > | ABSORBANCE ([1]; serum 3136): 0.992 | ABSORBANCE ([1]; serum 3235): > | ABSORBANCE ([1]; serum 3236): > | ABSORBANCE ([1]; serum 3302): > | ABSORBANCE ([1]; serum 3482): > | ABSORBANCE ([1]; serum 3529): > | ABSORBANCE ([1]; serum 3600*): > | ABSORBANCE ([1]; serum 3627*): > | ABSORBANCE ([1]; serum 3637): > | ABSORBANCE ([1]; serum 3653): > | ABSORBANCE ([1]; serum 3771): > | ABSORBANCE ([1]; serum 3884*): > | ABSORBANCE ([1]; serum 3891): > | ABSORBANCE ([1]; serum 3935): 0.893 | ABSORBANCE ([1]; serum 3945): > | ABSORBANCE ([1]; serum 4021*): 0.119 | ABSORBANCE ([1]; serum 4288*): > | ABSORBANCE ([1]; serum 4364): > | ABSORBANCE ([1]; serum 4434): > | ABSORBANCE ([1]; serum 4477): > | ABSORBANCE ([1]; serum 4489*): > | ABSORBANCE ([1]; serum 5149*): > | ABSORBANCE ([1]; serum 5164): > | ABSORBANCE ([1]; serum 5210): > | ABSORBANCE ([1]; serum 5270*): > | ABSORBANCE ([1]; serum 5373): > | ABSORBANCE ([1]; serum 5453): 0.081 | ABSORBANCE ([1]; serum 5766*): > | ABSORBANCE ([1]; serum 5931): > | ABSORBANCE ([1]; serum 5969*): 0.282 | ABSORBANCE ([1]; serum 6111): > | ABSORBANCE ([1]; serum 6165): > | ABSORBANCE ([1]; serum 6198*): > | ABSORBANCE ([1]; serum 6295*): 1.063 | ABSORBANCE ([1]; serum 6487): 1.017 | ABSORBANCE ([1]; serum 6512*): 0.785 | ABSORBANCE ([1]; serum 6627): > | ABSORBANCE ([1]; serum 6689*): > | ABSORBANCE ([1]; serum 6697): > | ABSORBANCE ([1]; serum 6782): 2.091 | ABSORBANCE ([1]; serum 6891): 0.614 | ABSORBANCE ([1]; serum 6976*): > | ABSORBANCE ([1]; serum 6998): > | ABSORBANCE ([1]; serum 7007): 2.334 | ABSORBANCE ([1]; serum 7120): > | ABSORBANCE ([1]; serum 7212): > | ABSORBANCE ([1]; serum 7258*): > | ABSORBANCE ([1]; serum 7297*): > | ABSORBANCE ([1]; serum 7439): > | ABSORBANCE ([1]; serum 7443): > | ABSORBANCE ([1]; serum DUR*): > | ABSORBANCE ([1]; serum ESS*): > | ABSORBANCE ([1]; serum HAD): 0.518 | ABSORBANCE ([1]; serum VAU*): > | immunoreactivity compared with the other peptides (in words) ([1]; summary of Table IV): more immunoreactive than the VAU 22 AA peptide

LLNSWGCKGRLVCYTS [PEPTIDE No. 10 (14B)]
Number of samples ([2]; CLASS A (a: OD<0.100)): 3 | Number of samples ([2]; CLASS B (b: 0.100<OD<0.500)): 2 | Number of samples ([2]; CLASS C (c: 0.500<OD<1.000)): 5 | Number of samples ([2]; CLASS D (d: OD>1.000)): 4 | ABSORBANCE (OD) ([2]; serum 258 OUDI at 1/100): 0.587 | ABSORBANCE (OD) ([2]; serum 625 at 1/50): 0.838 | ABSORBANCE (OD) ([2]; serum 3600 at 1/100): 0.482 | ABSORBANCE (OD) ([2]; serum 3613 at ¼00): 1.108 | ABSORBANCE (OD) ([2]; serum 3653 at 1/10): 0.347 | ABSORBANCE (OD) ([2]; serum 4280 at 1/50): 0.022 | ABSORBANCE (OD) ([2]; serum 6111 at 1/100): 0.596 | ABSORBANCE (OD) ([2]; serum DJOU at 1/100): 1.268 | ABSORBANCE (OD) ([2]; serum DO15 at 1/100): 1.613 | ABSORBANCE (OD) ([2]; serum MBASSI at 1/100): 1.217 | ABSORBANCE (OD) ([2]; serum Maryland at ¼00): 0.524 | ABSORBANCE (OD) ([2]; serum NGO at 1/50): 0.067 | ABSORBANCE (OD) ([2]; serum NJEM at 1/100): 0.032 | ABSORBANCE (OD) ([2]; serum WANG at 1/50): 0.698
